Assay results as given in patent US11690887B2, “Composition for ameliorating psoriasis symptoms containing extract of Dianthus superbus L” (KOREA INSTITUTE OF SCIENCE AND TECHNOLOGY, priority 2020, dated 2023).

Legend:
[1] = tested on: filaggrin, loricrin, keratin 1 and keratin 14; assay: Biomarkers for epithelial tissue damage in back skin by immunofluorescence in imiquimod-induced psoriasis mice; type: in vivo, Balb/c mice; conditions: after treatment for a week, versus IMQ group
Source text: (§1) 6-week-old male Balb/c mice (Kangwon Life Science, Korea) were purchased and acclimated for a week, and psoriasis was induced using 5% imiquimod (Donga ST, Korea). FIG. 1 is a schematic experimental scheme of an animal model. Anti-psoriatic efficacy was investigated using a total of 20 animal models including 5 animals per experimental group.
(§2) In order to determine the effect of the extract of Dianthus superbus L. on psoriasis caused by imiquimod, the experimental animals of Section 2-1 were used. The following four experimental groups were constructed and five animals were randomly assigned to each group:
(§3) The experiment was conducted by inducing psoriasis with IMQ cream and then performing daily application in the amount shown in FIG. 2 to the experimental group and the DEX group. FIG. 3 is an image showing the treatment group for 7 days compared to the psoriasis-induced model as the animal experimental model.
After treatment for a week, back skin tissue was removed from each animal and a paraffin block was then prepared. A paraffin block was cut to 5 μm to prepare a slide sample, and then the change in biomarkers for epithelial tissue damage due to psoriasis was measured through immunofluorescence.

[2] = tested on: psoriasis caused by imiquimod; assay: Epithelial thickness of back skin by H&E staining in imiquimod-induced psoriasis mice; type: in vivo, Balb/c mice; conditions: after treatment for a week, skin application, compared to the IMQ group
Source text: as §1, §2, §3
After treatment for a week, the back skin tissue was removed from each animal, and then a paraffin block was prepared. The paraffin block was cut to 5 μm to prepare a slide sample, and then the change in the thickness of the skin tissue was measured through H&E staining.

C[C@@H]1C[C@H]2[C@@H]3CCC4=CC(=O)C=C[C@]4(C)[C@@]3(F)[C@@H](O)C[C@]2(C)[C@@]1(O)C(=O)CO [DEX, dexamethasone]
expression level of filaggrin [1]: increased | expression level of keratin 1 [1]: increased | expression level of keratin 14 [1]: increased | expression level of loricrin [1]: increased | thickness of the epithelial layer [2]: decreased thickness
